# According to PubChem BioAssay (NCI):
#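 Following 48 hours of exposure in 96-well plates, responses at five concentrations were used to interpolate endpoints linearly. Abbreviation: GI50, concentration required for 50% inhibition of growth. TGI denotes the concentration required for complete inhibition of growth.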
# Columns and labels:
# Experiment in all cases: NCI tumour cell line growth inhibition, 48 h
# SK-MEL-2 melanoma = system: SK-MEL-2 melanoma
# SNB-75 CNS = system: SNB-75 CNS
# NCI-H522 lung = system: NCI-H522 lung
# COLO 205 colon = system: COLO 205 colon
# A498 renal = system: A498 renal
# K-562 leukemia = system: K-562 leukemia
# HCT-15 colon = system: HCT-15 colon
SMILES,GI50 (SK-MEL-2 melanoma),TGI (SK-MEL-2 melanoma),GI50 (SNB-75 CNS),TGI (SNB-75 CNS),GI50 (NCI-H522 lung),TGI (NCI-H522 lung),GI50 (COLO 205 colon),TGI (COLO 205 colon),TGI (A498 renal),GI50 (K-562 leukemia),TGI (K-562 leukemia),GI50 (HCT-15 colon),TGI (HCT-15 colon),GI50 (A498 renal)
O=C(/C=C(\O)C(=O)O)/C=C(\O)c1ccccc1,> 1 µM,> 100 µM,> 1 µM,> 54.9 µM,> 1 µM,> 1 µM,> 1 µM,> 25.9 µM,> 100 µM,> 1 µM,> 100 µM,> 1 µM,> 100 µM,
O=c1cc(-c2ccccn2)[nH]c2cccc(F)c12,,,,> 100 µM,,> 100 µM,,> 100 µM,,,> 100 µM,,,
COc1cc(CNc2nc3c(N)cc(C(F)(F)F)cc3nc2-c2ccccc2)cc(OC)c1OC,,> 100 µM,,> 100 µM,,78.5 µM,,> 100 µM,> 100 µM,,> 100 µM,,> 100 µM,
C=C1CC(CC)(CCN2C(=O)c3ccccc3C2=O)OC1=O (stereo unspecified),,29.2 µM,,> 100 µM,,11.8 µM,,30.3 µM,36.8 µM,,> 100 µM,,31.6 µM,
COc1ccccc1N=Nc1c(-c2ccccc2)nn(C(=O)CC(=O)Nc2cccc(C)c2)c1-c1ccccc1,,,,93.5 µM,,> 100 µM,,> 100 µM,> 100 µM,,52.7 µM,,> 100 µM,
C=CCn1c(=S)sc2c(C(=O)OCC)c3c(C)cc(C)cn3c2c1=O,,> 100 µM,,> 100 µM,,> 100 µM,,> 100 µM,,,> 100 µM,,> 100 µM,
CC(C)N(C(=O)c1cccc(C(=O)N(C(C)C)C(C)C)c1)C(C)C,,> 100 µM,,> 100 µM,,> 100 µM,,> 100 µM,> 100 µM,,> 100 µM,,> 100 µM,
N#C/C(=C1\SCC(=O)N1c1ccccc1)c1nc2ccccc2[nH]1,,> 100 µM,,> 100 µM,,> 100 µM,,> 100 µM,> 100 µM,,> 100 µM,,> 100 µM,
COC(=O)CCC(NC(=S)N/N=C(\C)c1ccc[nH]1)C(=O)OC (stereo unspecified),,> 100 µM,,> 100 µM,,> 100 µM,,> 100 µM,> 100 µM,,> 100 µM,,> 100 µM,
O=c1cccccc1[O-].O=c1cccccc1[O-].O=c1cccccc1[O-].[Eu+3],,> 100 µM,,79 µM,,54.8 µM,,,> 100 µM,,> 100 µM,,> 100 µM,78.4 µM
[N-]=[N+]=NC(c1cn(C2CC(O)C(CO)O2)c(=O)[nH]c1=O)C(Cl)Br (stereo unspecified),,> 100 µM,,> 100 µM,,> 100 µM,,> 100 µM,,,> 100 µM,,> 100 µM,
Cc1c(C(=O)C/C(=N/NC(=O)c2ccccc2)C(=O)Nc2ccc(Cl)cc2)[n+](=O)c2ccccc2n1[O-],,> 100 µM,,> 100 µM,,> 100 µM,,> 100 µM,> 100 µM,,> 100 µM,,> 100 µM,
C[N+]1=c2c3cccc4cccc(c(=O)n2CC1)c43,,34.8 µM,,45 µM,,24.4 µM,,24.6 µM,30.9 µM,,47.7 µM,,60.7 µM,
COc1cc2c(cc1OC)C(C(=O)O)C(c1ccccc1)N(C)C2=O (stereo unspecified),,> 100 µM,,> 100 µM,,> 100 µM,,> 100 µM,> 100 µM,,> 100 µM,,,
CC(C)/C=C1\CCC(CN2CCOCC2)C1=O (stereo unspecified),,35.6 µM,,,,3.8 µM,,22.3 µM,> 51.3 µM,,9.06 µM,,19.2 µM,
O=C1C2C(C(=O)N1c1ccccc1)C1c3ccccc3C2C2C(=O)N(c3ccccc3)C(=O)C21 (stereo unspecified),,6.52 µM,,22.6 µM,,8.07 µM,,> 100 µM,> 100 µM,,> 100 µM,,> 100 µM,
Cc1cc(N(CCC#N)S(=O)(=O)c2ccccc2)ccc1/C=C1\N=C(c2ccc(Cl)cc2)OC1=O,,> 100 µM,,,,,,> 100 µM,> 100 µM,,> 100 µM,,> 100 µM,
CCCn1c(SCCSc2c3ccccc3c(-c3nc(F)nc(F)n3)n2CCC)c2ccccc2c1-c1nc(F)nc(F)n1,,> 100 µM,,> 100 µM,,> 100 µM,,> 100 µM,,,> 100 µM,,> 100 µM,
Cc1ccc(S(=O)(=O)N/N=C(\c2nc3ccc(Cl)cc3[nH]c2=O)C(O)c2ccco2)cc1 (stereo unspecified),,> 100 µM,,> 100 µM,,,,> 100 µM,> 100 µM,,> 100 µM,,> 100 µM,
CC(C)C1CO[C@]2(C)CCC(=O)N12 (stereo partly specified),,> 100 µM,,> 100 µM,,> 100 µM,,> 100 µM,,,> 100 µM,,> 100 µM,
C/C(CC(=O)NCCc1ccccc1)=N\NS(=O)(=O)c1ccc(C)cc1,,> 100 µM,,> 100 µM,,> 100 µM,,> 100 µM,> 100 µM,,> 100 µM,,,
Cc1cc2c(c(C(N)=O)c1C)-c1cccc(F)c1C2=O,,> 100 µM,,66.5 µM,,> 100 µM,,> 100 µM,> 100 µM,,> 100 µM,,> 100 µM,
